The text below walks through data of US7868005B2, “Pyrazinyl substituted piperazine-piperidines with CXCR3 antagonist activity” (Schering Corporation, priority 2005, dated 2011).

What is called IC50 is the midpoint of a concentration-inhibition curve.

The assay deals with T1, human CXCR3 (N-delta 4) (Homo sapiens, UniProt P49682).
T1 construct: CD8 leader (N); Flag; expressed in transfected cells; membranes prepared
T1 sequence (P49682 5-368 limits assumed): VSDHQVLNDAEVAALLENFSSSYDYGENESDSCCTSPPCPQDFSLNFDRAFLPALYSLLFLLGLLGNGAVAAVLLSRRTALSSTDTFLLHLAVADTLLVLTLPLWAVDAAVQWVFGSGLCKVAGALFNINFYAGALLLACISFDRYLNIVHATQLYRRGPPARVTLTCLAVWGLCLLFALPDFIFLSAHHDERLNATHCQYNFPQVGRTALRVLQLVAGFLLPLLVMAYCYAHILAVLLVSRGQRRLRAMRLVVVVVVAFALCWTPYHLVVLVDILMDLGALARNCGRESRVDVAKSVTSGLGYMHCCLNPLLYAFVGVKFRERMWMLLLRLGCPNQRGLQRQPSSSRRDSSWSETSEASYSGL
Nature of the assay: Human CXCR3 (N-delta 4) Scintillation Proximity Assay (SPA), [125I] IP-10 binding to Ba/F3-hCXCR3 membranes. The note with it: IC50 rating, Table 1; read-out: IC50. (In general: Scintillation proximity formats need no separation of bound from free tracer.)
Take `CC[C@H]1CN(c2ncc(C(N)=O)nc2NC)CCN1C1CCN(C(=O)c2ccc(Cl)cc2)CC1` [compound 383]: the IC50 was above 100 nM.

In the case of `CC[C@H]1CN(c2ncc(C(=O)NC)nc2NC)CCN1C1CCN(C(=O)c2ccc(Cl)cc2)CC1` [compound 384], the IC50 was above 100 nM.

Turning to `CC[C@H]1CN(c2nc(N)c(C(N)=O)nc2Cl)CCN1C1CCN(Cc2ccc(Cl)cc2C2CNC(=O)O2)CC1` (stereo partly drawn) [compound 385], the IC50 was below 25 nM.

For the compound `CC[C@H]1CN(c2nc(N)c(C(N)=O)nc2Cl)CCN1C1CCN(Cc2ccc(Cl)cc2N2CCN(C)C2=O)CC1` [compound 386], the IC50 is below 25 nM.

For the compound `CC[C@H]1CN(c2ncc(C(N)=O)nc2Br)CCN1C1CCN(C(=O)c2ccc(Cl)cc2)CC1` [compound 387], the IC50 is below 25 nM.

As for `CC[C@H]1CN(c2ncc(C(N)=O)nc2C)CCN1C1CCN(C(=O)c2ccc(Cl)cc2)CC1` [compound 388], the IC50 was below 25 nM.

For the compound `CC[C@H]1CN(c2nc(N)c(C(=O)NC(=N)NC)nc2Cl)CCN1C1CCN(Cc2ccc(Cl)c(F)c2)CC1` [compound 389], the IC50 is below 25 nM.

In the case of `CC[C@H]1CN(c2nc(N)c(C(=O)NC(=N)NC)nc2Cl)CCN1C1CCN(Cc2ccc(Cl)cc2)CC1` [compound 390], the IC50 was below 25 nM.

For `CC[C@H]1CN(c2nc(N)c(C(=O)NC(=N)NC)nc2Cl)CCN1C1CCN(Cc2ccc(OC(F)(F)F)cc2)CC1` [compound 391], the IC50 was below 25 nM.

Consider `CC[C@H]1CN(c2nc(N)c(C(=O)NC(=N)NC)nc2Cl)CCN1C1CCN(C(=O)c2ccc(Cl)c(F)c2)CC1` [compound 392], for which the IC50 is below 25 nM.

On to `CC[C@H]1CN(c2nc(N)c(C(=O)NC(=N)NC)nc2Cl)CCN1C1CCN(C(=O)c2ccc(Cl)cc2)CC1` [compound 393], for which the IC50 is below 25 nM.

Turning to `CC[C@H]1CN(c2nc(N)c(C(=O)NCCO)nc2Cl)CCN1C1CCN(Cc2ccc(F)c(OC)c2)CC1` [compound 394], the IC50 is below 25 nM.

Take `CC[C@H]1CN(c2ncc(C(N)=O)nc2Cl)CCN1C1CCN(Cc2ccc(Cl)cc2[C@H](O)C(N)=O)CC1` [compound 396]: the concentration for half-maximal inhibition (IC50) was below 25 nM.

`CC[C@H]1CN(c2nc(N)c(C(=O)NCCO)nc2Cl)CCN1C1CCN(Cc2ccc(OC)c(F)c2)CC1` [compound 397]: the IC50 is below 25 nM.

As to `CC[C@H]1CN(c2nc(N)c(C(=O)NC(=N)NC)nc2Cl)CCN1C1CCN(C(=O)c2ccc(F)c(F)c2)CC1` [compound 398], the IC50 was below 25 nM.

With `CC[C@H]1CN(c2nc(N)c(C(=O)NC(=N)NC)nc2Cl)CCN1C1CCN(C(=O)c2ccc(C#N)cc2)CC1` [compound 399], the IC50 was below 25 nM.

`CC[C@H]1CN(c2nc(N)c(C(N)=O)nc2Cl)CCN1C1CCN(Cc2ccc(Cl)cc2S(N)(=O)=O)CC1` [compound 401]: the IC50 was below 25 nM.

As for `CC[C@H]1CN(c2nc(N)c(C(=O)NC(=N)NC)nc2Cl)CCN1C1CCN(C(=O)c2ccc(OC(F)(F)F)cc2)CC1` [compound 402], the IC50 is below 25 nM.

Take `CC[C@H]1CN(c2nc(N)c(C(N)=O)nc2Cl)CCN1C1CCN(Cc2ccc(Cl)cc2C2NC(=O)NC2=O)CC1` (stereo partly drawn) [compound 405]: the IC50 was above 100 nM.

Consider `CC[C@H]1CN(c2nc(N)c(C(N)=O)nc2Cl)CCN1C1CCN(Cc2ccc(Cl)cc2C2OC(=O)N(C)C2=O)CC1` (stereo partly drawn) [compound 406], for which the IC50 was above 100 nM.

For `CC[C@H]1CN(c2nc(N)c(C(N)=O)nc2Cl)CCN1C1CCN(Cc2ccc(Cl)cc2C2OC(=O)NC2=O)CC1` (stereo partly drawn) [compound 407], the IC50 was above 100 nM.

As for `CC[C@H]1CN(c2ncc(C(N)=O)nc2C)CCN1C1CCN(C(=O)c2ccc(F)c(F)c2)CC1` [compound 408], the IC50 was in the range of 25 to 100 nM.

Consider `CC[C@H]1CN(c2ncc(C(N)=O)nc2Cl)CCN1C1CCN(C(=O)c2ccc(Cl)c(OCCS(C)(=O)=O)c2)CC1` [compound 409], for which the IC50 is below 25 nM.

Regarding `CC[C@H]1CN(c2nc(N)c(C(=O)NCCO)nc2Cl)CCN1C1CCN(Cc2ccc(Cl)c(OCCS(C)(=O)=O)c2)CC1` [compound 410], the IC50 was below 25 nM.

`CC[C@H]1CN(c2nc(N)c(C(N)=O)nc2Cl)CCN1C1CCN(Cc2ccc(Cl)c(OCCS(C)(=O)=O)c2)CC1` [compound 411]: the IC50 was below 25 nM.

On to `CC[C@H]1CN(c2ncc(C(N)=O)nc2C)CCN1C1CCN(Cc2ccc(Cl)cc2)CC1` [compound 412], for which the IC50 is below 25 nM.

Consider `CC[C@H]1CN(c2nc(N)c(C(=O)NCCO)nc2Cl)CCN1C1CCN(Cc2ccc(F)c(OCCSC)c2)CC1` [compound 413], for which the IC50 is below 25 nM.

Consider `CC[C@H]1CN(c2nc(N)c(C(=O)NCCO)nc2Cl)CCN1C1CCN(Cc2ccc(OCCSC)c(F)c2)CC1` [compound 415], for which the IC50 is below 25 nM.

In the case of `CC[C@H]1CN(c2ncc(C(N)=O)nc2C(F)(F)F)CCN1C1CCN(C(=O)c2ccc(Cl)cc2)CC1` [compound 416], the IC50 was below 25 nM.

As for `CC[C@H]1CN(c2ncc(C(N)=O)nc2C)[C@H](C)CN1C1CCN(C(=O)c2ccc(Cl)cc2)CC1` [compound 417], the IC50 was below 25 nM.

For the compound `CC[C@H]1CN(c2nc(N)c(C(=O)NCCO)nc2Cl)CCN1C1CCN(C(=O)c2ccc(F)c(O)c2)CC1` [compound 419], the IC50 was below 25 nM.

In the case of `CC[C@H]1CN(c2nc(N)c(C(=O)NC3CC3)nc2Cl)CCN1C1CCN(Cc2ccc(Cl)cc2S(C)(=O)=O)CC1` [compound 420], the IC50 is below 25 nM.

Take `CC[C@H]1CN(c2nc(N)c(C(=O)NCCO)nc2Cl)CCN1C1CCN(Cc2ccc(F)c(OS(C)(=O)=O)c2)CC1` [compound 421]: the IC50 is below 25 nM.

As for `CC[C@H]1CN(c2nc(N)c(C(=O)NCCO)nc2Cl)CCN1C1CCN(Cc2ccc(Cl)cc2S(C)(=O)=O)CC1` [compound 422], the IC50 is below 25 nM.

For the compound `CCc1nc(C(N)=O)cnc1N1CCN(C2CCN(C(=O)c3ccc(Cl)cc3)CC2)[C@@H](CC)C1` [compound 423], the IC50 is 25 to 100 nM.

As for `CC[C@H]1CN(c2ncc(C(=O)NC3=NCCN3)nc2Cl)CCN1C1CCN(C(=O)c2ccc(Cl)cc2)CC1` [compound 424], the IC50 is above 100 nM.

Regarding `CC[C@H]1CN(c2cnc(C(N)=O)cn2)CCN1C1CCN(Cc2ccc(Cl)cc2)CC1` [compound 425], the IC50 was above 100 nM.

Turning to `CC[C@H]1CN(c2nc(N)c(C(=O)NCCO)nc2Cl)CCN1C1CCN(Cc2ccc(OS(C)(=O)=O)c(F)c2)CC1` [compound 426], the IC50 was above 100 nM.

Take `CC[C@H]1CN(c2nc(N)c(C(=O)NCCO)nc2Cl)CCN1C1CCN(Cc2ccc(O)c(F)c2)CC1` [compound 427]: the IC50 was above 100 nM.

With `CC[C@H]1CN(c2nc(N)c(C(N)=O)nc2Cl)CCN1C1CCN(Cc2ccc(O)c(F)c2)CC1` [compound 428], the IC50 was above 100 nM.

In the case of `CC[C@H]1CN(c2nc(N)c(C(N)=O)nc2Cl)CCN1C1CCN(Cc2ccc(Cl)cc2S(=O)(=O)NC)CC1` [compound 429], the IC50 was above 100 nM.

Consider `CC[C@H]1CN(c2nc(N)c(C(=O)NCCO)nc2Cl)CCN1C1CCN(C(=O)c2ccc(CS(C)(=O)=O)cc2)CC1` [compound 430], for which the IC50 is above 100 nM.

As to `CC[C@H]1CN(c2ncc(C(N)=O)nc2C)CCN1C1CCN(Cc2ccc(F)cc2)CC1` [compound 431], the IC50 is below 25 nM.

As for `CC[C@H]1CN(c2ncc(C(N)=O)nc2C)[C@H](C)CN1C1CCN(Cc2ccc(F)cc2)CC1` [compound 432], the IC50 was below 25 nM.

Consider `CC[C@H]1CN(c2ncc(C(N)=O)nc2C)CCN1C1CCN(Cc2ccc(C)c(F)c2)CC1` [compound 433], for which the IC50 was below 25 nM.
